Measurements from patent US12012404B2, “Pyrimidoheterocyclic compounds and application thereof” (D3 BIO (WUXI) CO., LTD., priority 2020, dated 2024).

Assays:
[1] = test system: plasma protein of SD rats; test: Protein binding rate by equilibrium dialysis, SD rats plasma; assay type: in vitro ADME; conditions: for Protein unbound rate: SD rats plasma, 2 μM, dialysis 4 hours
Experimental: (§1) Purpose of the assay: Protein binding rate of the assay compounds in plasma of CD-1 mice, SD rats, beagle dogs, cynomolgus monkeys and human was determined by equilibrium dialysis.
(§2) Procedure of the assay: Plasma samples with a compound concentration of 2 μM were prepared using plasma of the above five species, placed in a 96-well equilibrium dialysis device, and dialyzed with phosphate buffer solution at 37±1° C. for 4 hours. Warfarin was used as the control compound in this assay. The concentrations of the assay compounds in plasma and dialysis buffer were determined by LC-MS/MS method.

[2] = test system: KRAS^G12C-mutated MIA-PA-CA-2 cells; test: Inhibition of proliferation of KRAS^G12C-mutated MIA-PA-CA-2 cells (CellTiter-Glo, 72 h); assay type: cell-based, human; conditions: Homo sapiens, MIA PaCa-2, 72 h incubation
Experimental: Compounds were assayed for IC50 of inhibition of proliferation of KRAS^G12C-mutated MIA-PA-CA-2 cells.
The main reagent used in this assay included CellTiter-Glo (Promega, Cat. No. G7573).
The main instrument used in this assay was PerkinElmer EnVision multi-function microplate reader.
1.4 Method of the Assay • 1) Adherent cells were digested with trypsin to form a cell suspension, and the cell suspension was counted for later use. • 2) An appropriate amount of cells was added into a centrifuge tube, and a cell culture medium was added to make up the required volume; then the cells were plated to a 96-well plate at a final density of 2000 cells/well, 100 μL of culture medium. • 3) After incubating for 24 hr, the compound was formulated to 10 mM with DMSO, and serially diluted 3-fold with DPBS (Dulbecco's Phosphate Buffered Saline) to 9 points; 10 μL was added to each well in duplicate. 10 μL of DPBS per well was added to the assay control wells (Con). • 4) On the same day, 50 μL of CellTiter Glo was added to another cell culture plate without compounds, and the fluorescence value was read by EnVision. […] The fluorescence value was read by EnVision. • 6) Data analysis: The inhibition rate of cells in each well was calculated according to the following equation: […]

[3] = Protein binding rate by equilibrium dialysis, SD rats plasma; assay type: in vitro ADME; conditions: rat, plasma; SD rats, as listed in PK Table 8; read-out: Plasma protein unbound rate PPB (Unbound %)
Experimental: as §1, §2

[4] = test system: KRAS^G12C-mutated H358 cells; test: H358 cell assay: inhibition of proliferation (CellTiter-Glo, 5 days); assay type: cell-based; conditions: Homo sapiens, 120 h; NCI-H358 cells, 5 days incubation
Experimental: Compounds were assayed for IC50 of inhibition of proliferation of KRAS^G12C-mutated H358 cells.
The main instrument used in this assay was a Nivo multi-label analyzer (PerkinElmer).
2.4 Method of the Assay: • 1) NCI-H358 cells were inoculated in a white 96-well plate, and each well contained 80 μL of cell suspension and 4000 NCI-H358 cells. […] The assay was carried out in duplicate. 78 μL of medium was added to the intermediate plate, and then 2 μL of the serially diluted compound was transferred to each well of the intermediate plate according to the corresponding position. After mixing well, 20 μL per well was transferred to the cell plate. […] The cell plate was incubated in a carbon dioxide incubator for 5 days. Another cell plate was prepared, and the signal value of the cell plate was read on the day of compound addition as the maximum value (Max value in the equation below) to participate in data analysis. 25 μL of cell viability chemiluminescence detection reagent was added to each well of the cell plate, and the plate was incubated at room temperature for 10 minutes to stabilize the luminescence signal. A multi-label analyzer was used for reading the plate. • 3) […]

[5] = Protein binding rate by equilibrium dialysis, CD-1 mice plasma; assay type: in vitro ADME; conditions: CD-1, mouse, plasma; mice, as listed in PK Table 9; read-out: Plasma protein unbound rate PPB (Unbound %)
Experimental: as §1, §2

Plasma protein unbound rate PPB (Unbound %) ([1]; SD rats, as listed in PK Table 8) [%] | SMILES | Protein unbound rate [1] | IC50 [2] [nM] | fraction unbound at 4 h, 2 μM [3] | IC50 [4] [nM] | fraction unbound at 4 h, 2 μM [5]
9.8 | C=C(F)C(=O)N1CCN(c2nc(OCC3CCCN3C)nc3c2COC(c2c(F)c(N)cc(C)c2C(F)(F)F)C3)CC1CC#N.Cl (single isomer, unassigned) [Compound 8B hydrochloride] | 9.8 | – | – | – | –
– | C=C(F)C(=O)N1CCN(c2nc(OC[C@@]34CCCN3C[C@H](F)C4)nc3c2COC(c2c(F)c(N)cc(C)c2C(F)(F)F)C3)C[C@@H]1CC#N (stereo partly shown) [Compound 17] | 4.8 | 0.44 | 0.048 | 0.6 | 0.0154
